Laboratory results as given in patent US20220087974A1, “METHOD AGAINST CORONAVIRUS INFECTION WITH COUMARIN-DERIVED COMPOUND” (CHANG GUNG UNIVERSITY, priority 2020, published 2022).

Columns and labels:
[1] = tested on: Envelope (E) gene of SARS-CoV-2; test: Quantitative determination of viral gene expression (real-time PCR of E gene); assay type: cell-based, severe acute respiratory syndrome coronavirus 2; conditions: Vero E6 cells pretreated at 15.625 nM and 62.5 nM (experimental groups 2 to 3), m.o.i. 0.01, versus pathological control group
[2] = tested on: SARS-CoV-2; test: Viral plaque reduction assay; assay type: cell-based; conditions: SARS-CoV-2-infected Vero E6 cells, m.o.i. 0.01, HP520-2, 72 hours, versus pathological control group
[3] = tested on: HcoV-229E; test: MTT cell viability assay of HcoV-229E-infected Vero E6 cells; assay type: cell-based, human coronavirus 229E
Procedure: Vero E6 cells were divided into 5 groups, including one normal control group, one pathological control group, and three experimental groups (i.e., experimental groups 1 to 3). Each group of the Vero E6 cells was incubated in a respective well of a 96-well culture plate containing 100 μL of E2 medium at 2×10^4 cells/well, followed by cultivation in an incubator (37° C., 5% CO2) for 24 hours. Afterwards, the culture medium in each well was removed, and the cells of the experimental groups 1 to 3 were pretreated with 8-benzoyl-4-methyl-9-phenyl-furo[2,3-h]chromen-2-one (i.e., HP520-2) (Cat. No. STL-513320, Vitas-M Laboratory) respectively at concentrations of 20 nM, 40 nM, and 80 nM, followed by adding 150 μL of the HcoV-229E solution prepared in section 2 of General Experimental Materials. […]
Each group was cultivated in an incubator (37° C., 5% CO2) for 96 hours. […] After cultivation in an incubator (37° C., 5% CO2) for 2 hours, the respective resultant cell culture was added with 150 μL of dimethyl sulfoxide (DMSO), followed by subjecting the mixture thus obtained to determination of absorbance at a wavelength of 590 nm (OD590) by an ELISA reader.
The cell viability rate (%) was calculated using the following Equation (I): […]

Compound: Cc1cc(=O)oc2c1ccc1oc(C(=O)c3ccccc3)c(-c3ccccc3)c12 [HP520-2, 8-benzoyl-4-methyl-9-phenyl-furo[2,3-h]chromen-2-one]
- relative RNA expression level of E gene of SARS-CoV-2 [1]: significantly lower than that of the pathological control group
- number of viral plaques [2]: lower than that determined in the pathological control group
- EC50 ([3]; Human coronavirus 229E, Vero C1008, Vero E6 cells, HcoV-229E, 96 hours, MTT, n=3, mean±SD): 39 ± 15 nM
- cell viability rate ([3]; Vero E6 cells pretreated at 20 nM, 40 nM, 80 nM, versus pathological control group, FIG. 1): significantly higher than that determined in the pathological control group
